Tests used:
human MALAT1 RNA [1] = assay: MALAT1 RNA reduction in HEK-AGTR1 FAP cells, free uptake, 48 hours; type: cell-based; conditions: for MALAT (% control): relative to untreated control cells
Method: At the end of the treatment period, total RNA was isolated from the cells and MALAT1 RNA levels were measured by quantitative real-time PCR. […] MALAT1 RNA levels were normalized according to total RNA content, as measured by RIBOGREEN®. […] The half maximal inhibitory concentration (IC50) of each modified oligonucleotide was calculated using a non-linear fit [inhibitor] vs. response-variable slope (three parameters) formula in GraphPad Prism 7.01.

HEK-APLNR FAP cells = assay: IP1 accumulation negative control in HEK-APLNR FAP cells (do not express AGTR1); type: cell-based, human; conditions: 24 hours
Method: Activated AGTR1 couples to the Gαq subunit of heterotrimeric G proteins, which activates the phospholipase C (PLC) and subsequently inositol 1,4,5-trisphosphate (IP3) signaling cascade. AGTR1 signaling was measured using an IP-One Gq kit (cisbio #62IPAPEB). The kit detects the accumulation of inositol monophosphate (IP1), a stable downstream metabolite of IP3 induced by activation of a phospholipase C (PLC) cascade.
As a negative control, Compound Nos. 556089 and 1229761 were also tested in HEK293 cells expressing FAP tagged human Apelin receptor (HEK-APLNR FAP cells from Spectragenetics). […] HEK-APLNR FAP cells were cultured with Compound Nos. 556089 and 1229761, described herein above, at the concentrations detailed in Table 2 for 24 hours.

human MALAT1 RNA [2] = assay: MALAT1 RNA reduction in HEK-AGTR1 FAP cells, free uptake, 24 hours; type: cell-based; conditions: for MALAT (% control): relative to untreated control cells
Method: At the end of the treatment period, total RNA was isolated from the cells and MALAT1 RNA levels were measured by quantitative real-time PC&. […] MALAT1 RNA levels were normalized according to total RNA content, as measured by RIBOGREEN®. Reduction of MALAT1 RNA is presented Table 3 below as percent MALAT1 RNA amount relative to untreated control (UTC) cells. The half maximal inhibitory concentration (IC50) of each modified oligonucleotide was calculated using a non-linear fit [inhibitor] vs. response—variable slope (four parameters) formula in GraphPad Prism 7.01.

mouse MALAT RNA = assay: MALAT RNA reduction in vivo, C57BL6/J mice, multiple dose; conditions: for ED50: IV day 0, 4, 8
Method: Compound Nos. 556089, 1229761, and 1229762 are described in Table 1 above. Compound Nos. 556089, 1229761, and 1229762 were tested in C57BL6/J mice. The mice were divided into groups of 4 mice each. […] The mice were then sacrificed on day 12. Heart, adipose, adrenal, kidney, and liver tissue was then collected and homogenized and RNA analysis was performed. A group of 4 mice received PBS as a negative control.
RNA was extracted from heart, adipose, adrenal, kidney, and liver tissue for real-time PCR analysis of measurement of RNA expression of MALAT using primer probe set mMALAT1 #2 (forward sequence […] (SEQ ID NO: 5); reverse sequence […] (SEQ ID NO: 6); probe sequence […] (SEQ ID NO: 7)). Results are presented as percent change of RNA, relative to PBS control, normalized to mouse GAPDH.

## Compound No. 1229761: Angiotensin II peptide [N6-(2-azidoacetyl)-K]DRVYIHPF conjugated via linker to 5′-end of MALAT1 modified oligonucleotide TCAGCATTCTAATAGCAGC
Human MALAT1 RNA [1]; 2.7 nM, 48 hours
  MALAT (% control): 94 % control
Human MALAT1 RNA [1]; 8.2 nM, 48 hours
  MALAT (% control): 98 % control
Human MALAT1 RNA [1]; 24.7 nM, 48 hours
  MALAT (% control): 92 % control
Human MALAT1 RNA [1]; 74.1 nM, 48 hours
  MALAT (% control): 85 % control
Human MALAT1 RNA [1]; 222.2 nM, 48 hours
  MALAT (% control): 53 % control
Human MALAT1 RNA [1]; 666.7 nM, 48 hours
  MALAT (% control): 26 % control
Human MALAT1 RNA [1]; 2000 nM, 48 hours
  MALAT (% control): 18 % control
Human MALAT1 RNA [1]; 6000 nM, 48 hours
  MALAT (% control): 16 % control
Human MALAT1 RNA [1]; .10 nM, 48 hours
  MALAT (% control): 85 % control
Human MALAT1 RNA [1]; .3 nM, 48 hours
  MALAT (% control): 99 % control
Human MALAT1 RNA [1]; .9 nM, 48 hours
  MALAT (% control): 91 % control
Human MALAT1 RNA [1]; MALAT1 RNA, 48 hours, three parameter fit
  IC50: 0.29 µM
Human MALAT1 RNA [1]; compared to parent unconjugated Compound No. 556089, 48 hours
  reduction of target RNA in words: significantly greater reduction of target RNA
HEK-APLNR FAP cells; 0.0256 nM
  IP1 accumulation: 590 nM
HEK-APLNR FAP cells; 0.128 nM
  IP1 accumulation: 477 nM
HEK-APLNR FAP cells; 0.64 nM
  IP1 accumulation: 564 nM
HEK-APLNR FAP cells; 3.2 nM
  IP1 accumulation: 510 nM
HEK-APLNR FAP cells; 16 nM
  IP1 accumulation: 505 nM
HEK-APLNR FAP cells; 80 nM
  IP1 accumulation: 492 nM
HEK-APLNR FAP cells; 400 nM
  IP1 accumulation: 425 nM
HEK-APLNR FAP cells; 2000 nM
  IP1 accumulation: 472 nM
Human MALAT1 RNA [2]; 12 nM, 24 hours
  MALAT (% control): 126 % control
Human MALAT1 RNA [2]; 111 nM, 24 hours
  MALAT (% control): 76 % control
Human MALAT1 RNA [2]; 333 nM, 24 hours
  MALAT (% control): 63 % control
Human MALAT1 RNA [2]; 1000 nM, 24 hours
  MALAT (% control): 67 % control
Human MALAT1 RNA [2]; 3000 nM, 24 hours
  MALAT (% control): 36 % control
Human MALAT1 RNA [2]; 9000 nM, 24 hours
  MALAT (% control): 33 % control
Human MALAT1 RNA [2]; MALAT1 RNA, 24 hours, four parameter fit
  IC50: 0.182 µM
Human MALAT1 RNA [2]; compared to parent unconjugated Compound No. 556089, 24 hours
  reduction of target RNA in words: significantly greater reduction of target RNA
Mouse MALAT RNA; Adipose, 0.4 μmol/kg IV day 0, 4, 8, sacrifice day 12, relative to PBS
  MALAT-1 RNA (% control): 66.2 % control
Mouse MALAT RNA; Adipose, 1.2 μmol/kg IV day 0, 4, 8, sacrifice day 12, relative to PBS
  MALAT-1 RNA (% control): 33.0 % control
Mouse MALAT RNA; Adipose, 3.6 μmol/kg IV day 0, 4, 8, sacrifice day 12, relative to PBS
  MALAT-1 RNA (% control): 15.5 % control
Mouse MALAT RNA; Adipose
  ED50: 0.1 µmol/kg
Mouse MALAT RNA; Adrenal, 0.4 μmol/kg IV day 0, 4, 8, sacrifice day 12, relative to PBS
  MALAT-1 RNA (% control): 90.3 % control
Mouse MALAT RNA; Adrenal, 1.2 μmol/kg IV day 0, 4, 8, sacrifice day 12, relative to PBS
  MALAT-1 RNA (% control): 59.7 % control
Mouse MALAT RNA; Adrenal, 3.6 μmol/kg IV day 0, 4, 8, sacrifice day 12, relative to PBS
  MALAT-1 RNA (% control): 41.5 % control
Mouse MALAT RNA; Adrenal
  ED50: 1.091 µmol/kg
Mouse MALAT RNA; Heart, 0.4 μmol/kg IV day 0, 4, 8, sacrifice day 12, relative to PBS
  MALAT-1 RNA (% control): 82.3 % control
Mouse MALAT RNA; Heart, 1.2 μmol/kg IV day 0, 4, 8, sacrifice day 12, relative to PBS
  MALAT-1 RNA (% control): 68.7 % control
Mouse MALAT RNA; Heart, 3.6 μmol/kg IV day 0, 4, 8, sacrifice day 12, relative to PBS
  MALAT-1 RNA (% control): 31.7 % control
Mouse MALAT RNA; Heart
  ED50: 2.686 µmol/kg
Mouse MALAT RNA; Kidney, 0.4 μmol/kg IV day 0, 4, 8, sacrifice day 12, relative to PBS
  MALAT-1 RNA (% control): 53.8 % control
Mouse MALAT RNA; Kidney, 1.2 μmol/kg IV day 0, 4, 8, sacrifice day 12, relative to PBS
  MALAT-1 RNA (% control): 39.6 % control
Mouse MALAT RNA; Kidney, 3.6 μmol/kg IV day 0, 4, 8, sacrifice day 12, relative to PBS
  MALAT-1 RNA (% control): 21.4 % control
Mouse MALAT RNA; Kidney
  ED50: 1.88 µmol/kg
Mouse MALAT RNA; Liver, 0.4 μmol/kg IV day 0, 4, 8, sacrifice day 12, relative to PBS
  MALAT-1 RNA (% control): 34.7 % control
Mouse MALAT RNA; Liver, 1.2 μmol/kg IV day 0, 4, 8, sacrifice day 12, relative to PBS
  MALAT-1 RNA (% control): 12 % control
Mouse MALAT RNA; Liver, 3.6 μmol/kg IV day 0, 4, 8, sacrifice day 12, relative to PBS
  MALAT-1 RNA (% control): 5.7 % control
Mouse MALAT RNA; Liver
  ED50: 0.063 µmol/kg
